Earlier results as cited in US12697312B2, “Methods and devices for treatment of eyelid ptosis” (priority 2022, dated 2026).

What was measured:
[1] = system: dry eye; conditions: eye drops containing retinyl palmitate 0.05 percent; Kim et al. (2009)
[2] = system: Müllers muscle; conditions: by activating post synaptic neuromuscular junction and muscle contraction

Row | Structure (SMILES) | treatment of dry eye (keratoconjunctivitis sicca) [1] | effect on the eyelid (ptosis) [2]
1 | CCCCCCCCCCCCCCCC(=O)OC/C=C(C)/C=C/C=C(C)/C=C/C1=C(C)CCCC1(C)C [retinyl palmitate] | effective treatment for dry eye | –
2 | CNC[C@H](O)c1cccc(O)c1 [Phenylephrine] | – | shown to lift the eyelid
